Measured values from ChEMBL document CHEMBL6177971, “Iterative Optimization Yields Stapled Peptides with Superior Pharmacokinetics and Potency for Renal Fibrosis Treatment” (J Med Chem, 2025).
The source made the active and inactive calls. The calls are words filed in the database; no cut-off is given here. *1 amine or outer side, *2 acyl side, *3 side chain or, on linkers, in order; H or OH if unused. Where a SMILES comes first, the peptide text is derived from it. [ ]: non-standard residue; d: D form. X1 = CCCCC[C@](C)(N[*:1])C(=O)[*:2]; S5 = C=CCCC[C@](C)(N)C(=O)O

Columns and labels:
[1] = tested on: HK-2; test: Inhibition of TGF-beta1-induced EMT in human HK-2 cells assessed as decrease in fibronectin level at 10 uM incubated for 24 hrs by Western blot analysis; type: functional, cell-based
[2] = tested on: Mus musculus; test: Anti-fibrotic activity in male C57BL/6J mouse model of unilateral ureteral obstruction assessed as increase in E-cadherin level administered intraperitoneally every day for 7 days by Western blot analysis; type: functional, organism-based; conditions: route ip, time 7.0 day
[3] = Toxicity in male C57BL/6J mouse model of unilateral ureteral obstruction assessed as change in animal body weight administered intraperitoneally every day for 7 days; conditions: in vivo, ip, 168 h, time 7 day
[4] = tested on: Mus musculus; test: Anti-fibrotic activity in male C57BL/6J mouse model of unilateral ureteral obstruction assessed as decrease in alpha-SMA level administered intraperitoneally every day for 7 days by Western blot analysis; type: functional, organism-based; conditions: route ip, time 7.0 day
[5] = Half life in C57BL/6J mouse at 2.5 mg/kg, iv measured for 3 to 60 mins by HPLC/MS analysis; type: ADME, organism-based; conditions: in vivo, time 3-60 min
[6] = tested on: Mus musculus; test: Anti-fibrotic activity in male C57BL/6J mouse model of unilateral ureteral obstruction assessed as decrease in fibronectin level administered intraperitoneally every day for 7 days by Western blot analysis; type: functional, organism-based; conditions: route ip, time 7.0 day
[7] = Retention time of compound; type: physicochemical
[8] = tested on: HK-2; test: Inhibition of TGF-beta1-induced EMT in human HK-2 cells assessed as decrease in alpha-SMA level at 10 uM incubated for 24 hrs by Western blot analysis; type: functional, cell-based
[9] = tested on: Mus musculus; test: Anti-fibrotic activity in male C57BL/6J mouse model of unilateral ureteral obstruction assessed as decrease in vimentin level administered intraperitoneally every day for 7 days by Western blot analysis; type: functional, organism-based; conditions: route ip, time 7.0 day
[10] = Toxicity in male C57BL/6J mouse model of unilateral ureteral obstruction assessed as change in animal behaviour administered intraperitoneally every day for 7 days; conditions: in vivo, ip, 168 h, time 7 day
[11] = Half life of compound; type: physicochemical
[12] = Toxicity in male C57BL/6J mouse model of unilateral ureteral obstruction assessed as change in animal appearance administered intraperitoneally every day for 7 days; conditions: in vivo, ip, 168 h, time 7 day
[13] = tested on: HK-2; test: Inhibition of TGF-beta1-induced EMT in human HK-2 cells assessed as decrease in collagen I level at 10 uM incubated for 24 hrs by Western blot analysis; type: functional, cell-based
[14] = tested on: Mus musculus; test: Anti-fibrotic activity in C57BL/6J mouse model of unilateral ureteral obstruction assessed as decrease in renal fibrosis at 20 mg/kg, ip administered every day for 7 days by H and E staining based analysis; type: functional, organism-based; conditions: time 7.0 day
[15] = tested on: Mus musculus; test: Anti-fibrotic activity in C57BL/6J mouse model of unilateral ureteral obstruction assessed as decrease in renal inflammation at 20 mg/kg, ip administered every day for 7 days by H and E staining based analysis; type: functional, organism-based; conditions: time 7.0 day

half-life [5] | Retention_time [7] | half-life [11] | Structure (SMILES) | inhibition [1] | Activity [2] | Activity [3] | Activity [4] | Activity [6] | inhibition [8] | Activity [9] | Activity [10] | Activity [12] | inhibition [13] | Activity [14] | Activity [15]
11.4 min | 9.036 min | 98.4 min | C=CCCC[C@](C)(NC(=O)[C@H](Cc1c[nH]cn1)NC(=O)[C@@H](N)CC(=O)O)C(=O)N[C@@H](CC(N)=O)C(=O)N1CCC[C@H]1C(=O)N[C@@H](CCC(N)=O)C(=O)N[C@H](C(=O)N[C@@H](CCCNC(=N)N)C(N)=O)[C@@H](C)CC (H-DH[S5]NPQIR-NH2) | Active | Active | Non-toxic | Active | Active | Active | Active | Non-toxic | Non-toxic | Active |  | 
 | 10.009 min |  | CCCCC[C@](C)(NC(=O)[C@H](Cc1c[nH]cn1)NC(=O)[C@@H](N)CC(=O)O)C(=O)N[C@@H](CC(N)=O)C(=O)N1CCC[C@H]1C(=O)N[C@@H](CCC(N)=O)C(=O)N[C@H](C(=O)N[C@@H](CCCNC(=N)N)C(N)=O)[C@@H](C)CC (H-DH[X1]NPQIR-NH2) | Active | Active | Non-toxic | Active | Active | Active | Active | Non-toxic | Non-toxic | Active |  | 
 |  |  | C[C@H](CS)C(=O)N1CCC[C@H]1C(=O)O |  |  |  |  |  |  |  |  |  |  | Active | Active
